Columns and labels:
Assay type in all cases: cell-based
[1] = test system: S. aureus ATCC 33591 (methicillin-resistant); experiment: broth microdilution MIC assay, S. aureus ATCC 33591; details: Staphylococcus aureus, ATCC33591; Table 4; S. aureus 33591; read-out: S. aureus 33591 MIC
Description: (§1) To determine the ability of test compounds to potentiate the inhibition of the growth of bacterial strains, classic cell-based broth microdilution MIC assays were employed. MIC assays are performed according to CLSI methods except where otherwise noted (CLSI, 2011 and CLSI, 2009). The reference strains S. aureus ATCC 29213 (methicillin sensitive), S. aureus ATCC 33591 (methicillin-resistant), E. coli ATCC 25922 (wild-type/QC strain), P. aeruginosa ATCC 27853 (wild-type/QC strain), and the clinical isolate P. aeruginosa PA 8 were used to determine the ability of the exemplary carbapenem compounds to inhibit bacterial growth. An expanded panel of methicillin resistance S. aureus (MRSA) and Pseudomonas was also used to determine the ability of exemplary carbapenem compounds to inhibit bacterial growth across a broader representation of those species. To determine activity in MRSA and in addition to S. aureus ATCC 33591, S. aureus USA 300, USA 400 and USA 600, some of the most common clones found to cause human infection, were also used. To further gauge the impact on the carbapenem compounds due to various resistance mechanisms in Pseudomonas, the following strains were included: P. aeruginosa 35151 (hyper-permeable strain), P. aeruginosa AmexAB-OprM (an efflux pump knockout), and P. aeruginosa PA 3 (a clinical isolate of reduced carbapenem susceptibility). Briefly, cryo-preserved bacterial cultures of clinical strains are streaked for isolation on appropriate agar medium, in this case Mueller Hinton II agar. Following incubation to allow formation of colonies, these plates are sealed with parafilm and stored refrigerated for up to two weeks. For preparation of assay inocula and to ensure low variability, at least 5 colonies are picked from the agar plates with an inoculating loop and aseptically transferred to a culture tube containing 3 mL of Mueller-Hinton Broth (supplemented with divalent cations to required levels based on Manufacturers' specification). The broth culture is grown for 3-5 hours at 37° C. with shaking at 200 rpm. Meanwhile, 2-fold serial dilutions of test compounds are conducted in a 96 well plate with a final volume of 75 μL per well at 2-fold the final desired concentration. After the dilution plates are set up the growing cultures are then diluted in a cuvette containing MH II broth and the optical density is measured at 600 nm. Inocula are diluted such that 75 μL of this culture in Mueller-Hinton Broth results in a starting bacterial concentration of 5×10^5 CFU/mL when added to the dilution plates. The plates are incubated 16-20 hours at 37° C. The MIC is read visually as the lowest concentration well with no bacterial growth.
(§2) Representative results are shown in Tables 3, 4, and 5 where A represents an MIC>32 μg/mL, B represents an MIC between 8 and 32 μg/mL inclusive, C represents an MIC between 1 and 4 μg/mL inclusive, and D represents an MIC of <1 μg/mL. NT=Not Tested.

[2] = test system: E. coli ATCC 25922 (wild-type/QC strain); experiment: broth microdilution MIC assay, E. coli ATCC 25922; details: Escherichia coli, ATCC25922; Table 4; E. coli 25922; read-out: E. coli 25922 MIC
Description: as §1, §2

[3] = test system: P. aeruginosa ATCC 27853 (wild-type/QC strain); experiment: broth microdilution MIC assay, P. aeruginosa ATCC 27853; details: Pseudomonas aeruginosa, ATCC27853; Table 5; P. aeruginosa 27853; read-out: P. aeruginosa 27853 MIC
Description: as §1, §2

S. aureus USA 300 = experiment: broth microdilution MIC assay, S. aureus USA 300; details: Staphylococcus aureus; Table 4; S. aureus USA300; read-out: S. aureus USA300 MIC
Description: as §1, §2

S. aureus USA600 = experiment: broth microdilution MIC assay, S. aureus USA 600; details: Staphylococcus aureus; Table 4; S. aureus USA600; read-out: S. aureus USA600 MIC
Description: as §1, §2

[4] = test system: P. aeruginosa 35151 (hyper-permeable strain); experiment: broth microdilution MIC assay, P. aeruginosa 35151; details: Pseudomonas aeruginosa, read-out: P. aeruginosa 35151 MIC
Description: as §1, §2

[5] = test system: P. aeruginosa ΔmexAB-OprM (an efflux pump knockout); experiment: broth microdilution MIC assay, P. aeruginosa ΔmexAB-OprM; details: Pseudomonas aeruginosa, 20 h, read-out: P. aeruginosa ΔmexAB-OprM MIC
Description: as §1, §2

| SMILES | MIC [1] [µg/mL] | MIC [2] [µg/mL] | MIC [3] [µg/mL] | MIC (S. aureus USA 300) [µg/mL] | MIC (S. aureus USA600) [µg/mL] | MIC [4] [µg/mL] | MIC [5] [µg/mL] |
| --- | --- | --- | --- | --- | --- | --- | --- |
| C[C@@H](O)[C@H]1C(=O)N2C(C(=O)O)=C(SC3CN(CC4CCCNC4)C3)[C@H](C)[C@H]12 (stereo partly drawn) [Example 57, (4R,5S,6S)-6-((R)-1-hydroxyethyl)-4-methyl-7-oxo-3-((1-(piperidin-3-ylmethyl)azetidin-3-yl)thio)-1-azabicyclo[3.2.0]hept-2-ene-2-carboxylic acid] | 8 to 32 | < 1 | 1 to 4 | 1 to 4 | 1 to 4 | < 1 | 1 to 4 |
| C[C@@H](O)[C@H]1C(=O)N2C(C(=O)O)=C(SC3CN(C[C@@H]4CCNC4)C3)[C@H](C)[C@H]12 [Example 58, (4R,5S,6S)-6-((R)-1-hydroxyethyl)-4-methyl-7-oxo-3-((1-(((R)-pyrrolidin-3-yl)methyl)azetidin-3-yl)thio)-1-azabicyclo[3.2.0]hept-2-ene-2-carboxylic acid] | 1 to 4 | < 1 | 1 to 4 | 1 to 4 | 1 to 4 | < 1 | 1 to 4 |
| C[C@@H](O)[C@H]1C(=O)N2C(C(=O)O)=C(SC3CN(C[C@H]4CCNC4)C3)[C@H](C)[C@H]12 [Example 59, (4R,5S,6S)-6-((R)-1-hydroxyethyl)-4-methyl-7-oxo-3-((1-(((S)-pyrrolidin-3-yl)methyl)azetidin-3-yl)thio)-1-azabicyclo[3.2.0]hept-2-ene-2-carboxylic acid] | 1 to 4 | < 1 | 1 to 4 | 1 to 4 | 1 to 4 | < 1 | 1 to 4 |
| C[C@@H](O)[C@H]1C(=O)N2C(C(=O)O)=C(SC3CN(C[C@H]4CNCCO4)C3)[C@H](C)[C@H]12 [Example 60, (4R,5S,6S)-6-((R)-1-hydroxyethyl)-4-methyl-3-((1-(((R)-morpholin-2-yl)methyl)azetidin-3-yl)thio)-7-oxo-1-azabicyclo[3.2.0]hept-2-ene-2-carboxylic acid] | 8 to 32 | < 1 | 8 to 32 | 1 to 4 | 1 to 4 | < 1 | 1 to 4 |
| C[C@@H](O)[C@H]1C(=O)N2C(C(=O)O)=C(SC3CN(C[C@@H]4CNCCO4)C3)[C@H](C)[C@H]12 [Example 61, (4R,5S,6S)-6-((R)-1-hydroxyethyl)-4-methyl-3-((1-(((S)-morpholin-2-yl)methyl)azetidin-3-yl)thio)-7-oxo-1-azabicyclo[3.2.0]hept-2-ene-2-carboxylic acid] | 8 to 32 | < 1 | 1 to 4 | 1 to 4 | 1 to 4 | < 1 | 1 to 4 |
| C[C@@H](O)[C@H]1C(=O)N2C(C(=O)O)=C(SC3CN(C[C@H]4CC[C@H](N)CC4)C3)[C@H](C)[C@H]12 [Example 62, (4R,5S,6S)-3-((1-(((1r,4R)-4-aminocyclohexyl)methyl)azetidin-3-yl)thio)-6-((R)-1-hydroxyethyl)-4-methyl-7-oxo-1-azabicyclo[3.2.0]hept-2-ene-2-carboxylic acid] | 1 to 4 | < 1 | 1 to 4 | 1 to 4 | < 1 | < 1 | 1 to 4 |
| C[C@@H](O)[C@H]1C(=O)N2C(C(=O)O)=C(S[C@@H]3CCN(CC4CNCCS4)C3)[C@H](C)[C@H]12 (stereo partly drawn) [Example 63, (4R,5S,6S)-6-((R)-1-hydroxyethyl)-4-methyl-7-oxo-3-(((3R)-1-(thiomorpholin-2-ylmethyl)pyrrolidin-3-yl)thio)-1-azabicyclo[3.2.0]hept-2-ene-2-carboxylic acid] | 1 to 4 | < 1 | 8 to 32 | 1 to 4 | 1 to 4 | < 1 | 1 to 4 |
| C[C@@H](O)[C@H]1C(=O)N2C(C(=O)O)=C(SC3CN(C[C@H]4CC[C@@H](N)CC4)C3)[C@H](C)[C@H]12 [Example 64, (4R,5S,6S)-3-((1-(((1s,4S)-4-aminocyclohexyl)methyl)azetidin-3-yl)thio)-6-((R)-1-hydroxyethyl)-4-methyl-7-oxo-1-azabicyclo[3.2.0]hept-2-ene-2-carboxylic acid] | 1 to 4 | < 1 | 1 to 4 | < 1 | < 1 | < 1 | 1 to 4 |
| C[C@@H](O)[C@H]1C(=O)N2C(C(=O)O)=C(S[C@@H]3CCN(CC4CCNCC4(C)C)C3)[C@H](C)[C@H]12 (stereo partly drawn) [Example 65, (4R,5S,6S)-3-(((3R)-1-((3,3-dimethylpiperidin-4-yl)methyl)pyrrolidin-3-yl)thio)-6-((R)-1-hydroxyethyl)-4-methyl-7-oxo-1-azabicyclo[3.2.0]hept-2-ene-2-carboxylic acid] | 1 to 4 | < 1 | 8 to 32 | 1 to 4 | 1 to 4 | < 1 | 1 to 4 |
| CNC1CCC(CN2CC(SC3=C(C(=O)O)N4C(=O)[C@H]([C@@H](C)O)[C@H]4[C@H]3C)C2)CC1 (stereo partly drawn) [Example 66, (4R,5S,6S)-6-((R)-1-hydroxyethyl)-4-methyl-3-((1-(((1s,4S)-4-(methylamino)cyclohexyl)methyl)azetidin-3-yl)thio)-7-oxo-1-azabicyclo[3.2.0]hept-2-ene-2-carboxylic acid] | 1 to 4 | < 1 | 1 to 4 | 1 to 4 | 1 to 4 | < 1 | 1 to 4 |
| C[C@@H](O)[C@H]1C(=O)N2C(C(=O)O)=C(SC3CN(C[C@H]4CC[C@H](NC(=N)N)CC4)C3)[C@H](C)[C@H]12 [Example 67, (4R,5S,6S)-3-((1-(((1r,4R)-4-guanidinocyclohexyl)methyl)azetidin-3-yl)thio)-6-((R)-1-hydroxyethyl)-4-methyl-7-oxo-1-azabicyclo[3.2.0]hept-2-ene-2-carboxylic acid] | 1 to 4 | < 1 | 1 to 4 | 1 to 4 | < 1 | < 1 | 1 to 4 |
| CN[C@H]1CC[C@H](CN2CC(SC3=C(C(=O)O)N4C(=O)[C@H]([C@@H](C)O)[C@H]4[C@H]3C)C2)CC1 [Example 68, (4R,5S,6S)-6-((R)-1-hydroxyethyl)-4-methyl-3-((1-(((1r,4R)-4-(methylamino)cyclohexyl)methyl)azetidin-3-yl)thio)-7-oxo-1-azabicyclo[3.2.0]hept-2-ene-2-carboxylic acid] | 1 to 4 | < 1 | 1 to 4 | 1 to 4 | 1 to 4 | < 1 | 1 to 4 |
| CCN[C@H]1CC[C@H](CN2CC(SC3=C(C(=O)O)N4C(=O)[C@H]([C@@H](C)O)[C@H]4[C@H]3C)C2)CC1 [Example 69, (4R,5S,6S)-3-((1-(((1r,4R)-4-(ethylamino)cyclohexyl)methyl)azetidin-3-yl)thio)-6-((R)-1-hydroxyethyl)-4-methyl-7-oxo-1-azabicyclo[3.2.0]hept-2-ene-2-carboxylic acid] | 1 to 4 | < 1 | 1 to 4 | 1 to 4 | 1 to 4 | < 1 | 1 to 4 |

— patent publication US12084445B2, “Broad-spectrum carbapenems” (VenatoRx Pharmaceuticals, Inc., priority 2018, dated 2024)
